The record followed here is PubChem BioAssay (NCI).

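Interpolation was linear, between the two tested concentrations surrounding the appropriate level; five concentrations were tested over 48 hours in 96-well plates. Abbreviation: GI50, concentration required for 50% inhibition of growth. Definition used: TGI = concentration required for complete inhibition of growth.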

In one experiment the test system is SK-OV-3 ovarian. The experiment is described as follows: NCI anticancer screen, dose series, 48 h.
In turn, `CC(C)C1=C(O)C2=C(C(=O)C1=O)C1(C)CCCC(C)(C)C1C(O)C2OC=O` (stereo not drawn) showed a TGI of 27.1 µM.

Compound `CCCCCCCCCCCC1CC(=O)NCCCN(C)CCCCN(C)CCCN1C` (stereo not drawn) yielded a TGI of 3.2 µM.

The compound `CC(C)[Si](OC/C(=C/COC(C)(C)C)[C@H]1CC=C(C(=O)c2ccccc2N2CN(C)C(=O)N(C)C2)C1)(C(C)C)C(C)C` registered a TGI of 31.2 µM.

Take `COc1cc(C2c3cc4c(cc3[C@@H](Nc3ccc5c(c3)OCO5)C3COC(=O)[C@H]23)OCO4)cc(OC)c1O` (stereo partly drawn): the TGI came out at 16.3 µM.

Take `COc1ccc2c(c1)c(=O)c1c(NCCNCCO)ccc3c(=O)n(CCN(C)C)c(=O)n2c31`: the TGI is 2.71 µM.

For `CC(C)N1CN(c2ccccc2)C2(CCN(CCCC(=O)c3ccc(F)cc3)CC2)C1=O`, the TGI is over 100 µM.

`CC(C)=CCC[C@@H](C)C1=C(O)C(N)=C(C)C(=O)C1=O` returned a TGI of over 100 µM.

`CCOC(=O)C1=CC(C)(C(=O)OCC)Nc2c(nc(N)[nH]c2=O)N1` (stereo not drawn): the TGI was over 10 µM.

A further experiment relates to HCC-2998 colon. Description: NCI anticancer screen, dose series, 48 h.
On to `O=C(NN1C(=O)CSC1c1cccc(F)c1)c1ccncc1` (stereo not drawn), for which the TGI is over 100 µM.

`c1ccc2[nH]c(CNc3ccc(C4C[Se]N=N4)cc3)nc2c1` (stereo not drawn) displayed a TGI of over 100 µM.

Consider `COc1ccc(Oc2cnn(C(Br)(Br)C(C)=O)c(=O)c2Br)cc1`, for which the TGI came out at 30.6 µM.

Regarding `O=S1(=O)c2cnccc2NC(=NCc2ccccc2)N1c1ccccc1`, the TGI was over 100 µM.

Consider `Cc1ccc2oc(=O)c(-c3ccccc3)nc2c1`, for which the TGI was 41.9 µM.

The compound `CN(C)CCCNC(=O)c1c(O)c2ccccc2n(C)c1=O` came in with a TGI of over 100 µM.

Take `COc1ccc(-n2nc(C)c3c(Nc4ccc(NC(=O)Nc5ccc(Cl)c(C(F)(F)F)c5)cc4)ncnc32)cc1`: the GI50 was 2.22 µM and the TGI was found to be 5.64 µM.

As to `C[C@]12CC[C@@H]3c4ccc(O)cc4CC[C@H]3[C@@H]1C/C(=C\c1ccc(C#N)cc1)C2=O`, the TGI is over 100 µM.

`CC1(C)CC(C#Cc2ccccc2)CC(C)(C)N1O` gave a TGI of 32.2 µM.

`Cc1cc(O)c(-c2cc(O)c(C)cc2O)cc1O`: the TGI is 27.3 µM.

Compound `O=C(O)CN(CC(=O)O)C(C(=O)O)c1ccccc1` (stereo not drawn) registered a TGI of over 100 µM.

Compound `CCNc1ncnc2sc(SCc3ccccc3)nc12` displayed a TGI of over 100 µM.

`S=C1NC2=C(CSC/C2=C\c2ccccc2)C(c2ccccc2)N1` (stereo not drawn): the TGI was over 100 µM.

Consider `O=C(OCC1OC(n2nc(Cn3nnc(-c4cccnc4)n3)n(-c3cccc4ccccc34)c2=S)C(OC(=O)c2ccccc2)C1OC(=O)c1ccccc1)c1ccccc1` (stereo not drawn), for which the TGI was over 100 µM.

Compound `COc1ccc(/C=N/n2c(C)nc3c(sc(=S)n3-c3ccccc3)c2=O)cc1` showed a TGI of over 100 µM.

The compound `CCN1C(=O)C(=C/C=C/c2ccc(N(CC)CC)cc2)C(=O)N(CC)C1=S` came in with a TGI of over 100 µM.

The compound `CSc1nc2c(ncn2C2OC(CO)C(O)C(O)C2O)c(=O)[nH]1` (stereo not drawn) showed a TGI of over 100 µM.

With `Nc1ccccc1C(=O)C(Br)C(Br)c1ccc2c(c1)OCO2` (stereo not drawn), the TGI turned out to be 42.5 µM.

The compound `CC(C)C1=C(O)C2=C(C(=O)C1=O)C1(C)CCCC(C)(C)C1C(O)C2OC=O` (stereo not drawn) registered a TGI of 19.2 µM.

As to `CCCCCCCCCCCC1CC(=O)NCCCN(C)CCCCN(C)CCCN1C` (stereo not drawn), the TGI was found to be 3.21 µM.

`CC(C)[Si](OC/C(=C/COC(C)(C)C)[C@H]1CC=C(C(=O)c2ccccc2N2CN(C)C(=O)N(C)C2)C1)(C(C)C)C(C)C` displayed a TGI of 31 µM.

`COc1cc(C2c3cc4c(cc3[C@@H](Nc3ccc5c(c3)OCO5)C3COC(=O)[C@H]23)OCO4)cc(OC)c1O` (stereo partly drawn) yielded a TGI of 3.42 µM.

For the compound `COc1ccc2c(c1)c(=O)c1c(NCCNCCO)ccc3c(=O)n(CCN(C)C)c(=O)n2c31`, the TGI came out at 0.234 µM.

Compound `CC(C)N1CN(c2ccccc2)C2(CCN(CCCC(=O)c3ccc(F)cc3)CC2)C1=O` showed a TGI of 27.7 µM.

In the case of `CC(C)=CCC[C@@H](C)C1=C(O)C(N)=C(C)C(=O)C1=O`, the TGI was over 100 µM.

Turning to `CCOC(=O)C1=CC(C)(C(=O)OCC)Nc2c(nc(N)[nH]c2=O)N1` (stereo not drawn), the TGI was over 10 µM.

Another experiment deals with HCT-15 colon. Description: NCI anticancer screen, dose series, 48 h.
`N#C/C(=C1\SC(N=Nc2ccc(Cl)cc2)C(=O)N1c1ccccc1)c1nc2ccccc2[nH]1` (stereo not drawn) gave a TGI of over 100 µM.

Consider `O=C(NN1C(=O)CSC1c1cccc(F)c1)c1ccncc1` (stereo not drawn), for which the TGI is over 100 µM.

As for `c1ccc2[nH]c(CNc3ccc(C4C[Se]N=N4)cc3)nc2c1` (stereo not drawn), the TGI was over 100 µM.

The compound `COc1ccc(Oc2cnn(C(Br)(Br)C(C)=O)c(=O)c2Br)cc1` had a TGI of 39.8 µM.

Take `O=S1(=O)c2cnccc2NC(=NCc2ccccc2)N1c1ccccc1`: the TGI is over 100 µM.

With `Cc1ccc2oc(=O)c(-c3ccccc3)nc2c1`, the TGI turned out to be 96.9 µM.

Consider `O=C(O)/C=C\C(=O)Nc1ccc(S(=O)(=O)c2ccc(NC(=O)/C=C\C(=O)O)cc2)cc1`, for which the TGI is over 100 µM.

`CN(C)CCCNC(=O)c1c(O)c2ccccc2n(C)c1=O` had a TGI of over 100 µM.

Turning to `COc1ccc(-n2nc(C)c3c(Nc4ccc(NC(=O)Nc5ccc(Cl)c(C(F)(F)F)c5)cc4)ncnc32)cc1`, the GI50 was 1.42 µM and the TGI was determined as 3.09 µM.

Compound `C[C@]12CC[C@@H]3c4ccc(O)cc4CC[C@H]3[C@@H]1C/C(=C\c1ccc(C#N)cc1)C2=O` had a TGI of over 100 µM.

Regarding `CC1(C)CC(C#Cc2ccccc2)CC(C)(C)N1O`, the TGI was found to be 29 µM.

With `Cc1cc(O)c(-c2cc(O)c(C)cc2O)cc1O`, the TGI was over 51.1 µM.

With `O=C(O)CN(CC(=O)O)C(C(=O)O)c1ccccc1` (stereo not drawn), the TGI is over 100 µM.

On to `CCNc1ncnc2sc(SCc3ccccc3)nc12`, for which the TGI is over 100 µM.

`S=C1NC2=C(CSC/C2=C\c2ccccc2)C(c2ccccc2)N1` (stereo not drawn) yielded a TGI of over 100 µM.

`O=C(OCC1OC(n2nc(Cn3nnc(-c4cccnc4)n3)n(-c3cccc4ccccc34)c2=S)C(OC(=O)c2ccccc2)C1OC(=O)c1ccccc1)c1ccccc1` (stereo not drawn) gave a TGI of over 100 µM.

`CCN1C(=O)C(=C/C=C/c2ccc(N(CC)CC)cc2)C(=O)N(CC)C1=S`: the TGI is over 100 µM.

Consider `CSc1nc2c(ncn2C2OC(CO)C(O)C(O)C2O)c(=O)[nH]1` (stereo not drawn), for which the TGI is over 100 µM.

As for `Nc1ccccc1C(=O)C(Br)C(Br)c1ccc2c(c1)OCO2` (stereo not drawn), the TGI was found to be 48.1 µM.

On to `CC(C)C1=C(O)C2=C(C(=O)C1=O)C1(C)CCCC(C)(C)C1C(O)C2OC=O` (stereo not drawn), for which the TGI worked out at 16.4 µM.

The compound `CCCCCCCCCCCC1CC(=O)NCCCN(C)CCCCN(C)CCCN1C` (stereo not drawn) registered a TGI of 3 µM.

The compound `CC(C)[Si](OC/C(=C/COC(C)(C)C)[C@H]1CC=C(C(=O)c2ccccc2N2CN(C)C(=O)N(C)C2)C1)(C(C)C)C(C)C` had a TGI of 27.1 µM.

For `COc1cc(C2c3cc4c(cc3[C@@H](Nc3ccc5c(c3)OCO5)C3COC(=O)[C@H]23)OCO4)cc(OC)c1O` (stereo partly drawn), the TGI was 2.15 µM.

Consider `COc1ccc2c(c1)c(=O)c1c(NCCNCCO)ccc3c(=O)n(CCN(C)C)c(=O)n2c31`, for which the TGI came out at 6.39 µM.

On to `CC(C)N1CN(c2ccccc2)C2(CCN(CCCC(=O)c3ccc(F)cc3)CC2)C1=O`, for which the TGI worked out at 40.5 µM.

For `CC(C)=CCC[C@@H](C)C1=C(O)C(N)=C(C)C(=O)C1=O`, the TGI was over 100 µM.

As for `CCOC(=O)C1=CC(C)(C(=O)OCC)Nc2c(nc(N)[nH]c2=O)N1` (stereo not drawn), the TGI is over 10 µM.
